{
  "source": "patent US12550899B2",
  "about": "“Topramezone derivative and use thereof” (priority 2023, dated 2026)",
  "key": {"[1]": {"tested_on": "Digitaria sanguinalis", "assay": "Laboratory rainfastness test (foliar spray, simulated rainfall)", "type": "in vivo", "settings": "for Average fresh weight / Control efficacy: 20 days post-application", "method": "Refer to the “Pesticides guidelines for laboratory bioactivity tests Part 4: Foliar spray application test for herbicide activity, NY/T 1155.4-2006”.\nThe soil used for the test was a mixture of surface 20 cm loam and vermiculite, mixed in a volume ratio of 3:1 to form a culture soil. The test weeds were cultured in a glass greenhouse with a temperature ranging from 25° C. to 35° C. and under natural light.\nA measured quantity of Digitaria sanguinalis seeds were sown in plastic pots with a diameter of 9 cm, and covered with 1-2 mm of soil. The ports were then placed in enamel trays filled with water, and watered by bottom irrigation. After the water seeped to the soil surface, the pots were transferred to the glass greenhouse for standby.\nFive dosages were set for Compound I, Compound II and the control herbicide Topramezone, which were 3.75, 7.5, 15, 30 and 60 grams of active ingredient per hectare respectively. In addition, a blank control was also prepared.\nThe required amount of the herbicide was accurately measured out and directly added with water, which was diluted to the required dosage by using the serial dilution method for standby.\n(§1) The test was conducted on Digitaria sanguinalis at the two-leaf and one-heart stage, with the stems and leaves both sprayed uniformly. The ASS-4 automatic control spraying system with a fan-shaped nozzle was used indoors for herbicide application. Depending on the nozzle pressure and flow rate, 50 mL of herbicide solution was applied to a spraying area of 1.1 m^2 (which was equivalent to the water consumption of 30 L per mu). The system's operating speed was calibrated. The plastic pots to be treated were arranged evenly on the spraying platform to ensure uniform treatment. The spray pressure was set to 0.35 MPa, and the flow rate of the fan-shaped nozzle was set to 800 mL/min. The spraying was carried out in sequence from the low dosage to the high dosage. Each treatment was repeated four times.\nThe rainfastness test was set as follows: at 0.5 hours, 1.0 hour, 3.0 hours, and 6.0 hours after the application of the herbicide, the weeds that have already been sprayed with the herbicide were subjected to stem and leaf showering with a specific shower equipment simulating rainfall. Weeds that were not subjected to the showering treatment served as the control group.\nThe damage symptoms of the weeds (such as growth inhibition, chlorosis, malformation, etc.) were carefully recorded at 3, 7, 10, and 20 days after herbicide application. A visual comparison of the herbicide effectiveness was made after simulated rainfall at different time intervals. At 20 days post-application, the fresh weight of the aboveground parts of the weeds from each treatment group was measured, and the fresh weight control efficacy was calculated.\nThe treatment results were calculated according to the following formula: weed fresh weight control efficacy (%)=(control fresh weight−treatment fresh weight)/control fresh weight×100. A DPS statistical software was used to conduct regression analysis on the logarithmic values of the herbicide dosage and the probit values of the weed fresh weight control efficacy, and the correlation coefficient, GR50, GR90, and the 95% confidence interval were calculated."}, "[2]": {"tested_on": "Corn (White Waxy Corn)", "assay": "Corn safety laboratory test", "type": "in vivo", "settings": "in vivo", "method": "Three corn varieties: Zhengdan 958, white waxy corn, and sweet corn (Runhua sweet corn).\nThe soil used for the test was a mixture of surface 20 cm loam and vermiculite, mixed in a volume ratio of 3:1 to form a culture soil. The test corn was cultured in a glass greenhouse with a temperature ranging from 25° C. to 35° C. and under natural light.\nA measured quantity of corn seeds were sown in plastic pots with a diameter of 15 cm, and covered with 2-3 cm of soil. The ports were then placed in enamel trays filled with water, and watered by bottom irrigation. After sowing, the pots were transferred to the glass greenhouse for cultivation and growth.\nIn the corn safety test, dosages were set for the two Compounds (Compound I of the present invention and Compound II of the present invention) and the control herbicide Topramezone, which were 15, 30, 60, and 120 grams of active ingredient per hectare respectively. In addition, a blank control was also prepared.\nThe required amount of the herbicide was accurately measured out, an appropriate amount of emulsifier and organic solvent were added to dissolve the herbicide, and then a certain amount of water was added therein until the herbicide was diluted to the required dosage by using the serial dilution method for standby.\nCorn stems and leaves were uniformly sprayed at the 3-4-leaf stage.\nas §1, with “ASS-3” for “test was conducted on Digitaria sanguinalis at the two-leaf and one-heart stage, with the stems and leaves both sprayed uniformly. The ASS-4”, “three” for “four”\nThe herbicide was applied once. After spraying, the pots were air-dried for one day and then placed in the glass greenhouse. Regular watering was conducted to maintain moisture.\nAfter application of the herbicide, whether there were any phytotoxic symptoms in the corn for each treatment was recorded. If yes, the phytotoxicity symptoms and grade were recorded in detail. 15 days after application, the fresh weight of the corn in each treatment was measured and the fresh weight control efficacy was calculated to assess the safety of the herbicide on the corn.\nThe treatment results were calculated according to the following formula: fresh weight control efficacy (%)=(control fresh weight−treatment fresh weight)/control fresh weight×100."}, "[3]": {"settings": "No spraying (no simulated rainfall), dosage 3.75 g/hectare"}, "[4]": {"settings": "No spraying (no simulated rainfall), dosage 7.5 g/hectare"}, "[5]": {"settings": "No spraying (no simulated rainfall), dosage 15 g/hectare"}, "[6]": {"settings": "No spraying (no simulated rainfall), dosage 30 g/hectare"}, "[7]": {"settings": "No spraying (no simulated rainfall), dosage 60 g/hectare"}, "[8]": {"settings": "Spraying water 0.5 hour after herbicide application, dosage 3.75 g/hectare"}, "[9]": {"settings": "Spraying water 0.5 hour after herbicide application, dosage 7.5 g/hectare"}, "[10]": {"settings": "Spraying water 0.5 hour after herbicide application, dosage 15 g/hectare"}, "[11]": {"settings": "Spraying water 0.5 hour after herbicide application, dosage 30 g/hectare"}, "[12]": {"settings": "Spraying water 0.5 hour after herbicide application, dosage 60 g/hectare"}, "[13]": {"settings": "Spraying water 1.0 hour after herbicide application, dosage 3.75 g/hectare"}, "[14]": {"settings": "Spraying water 1.0 hour after herbicide application, dosage 7.5 g/hectare"}, "[15]": {"settings": "Spraying water 1.0 hour after herbicide application, dosage 15 g/hectare"}, "[16]": {"settings": "Spraying water 1.0 hour after herbicide application, dosage 30 g/hectare"}, "[17]": {"settings": "Spraying water 1.0 hour after herbicide application, dosage 60 g/hectare"}, "[18]": {"settings": "Spraying water 3.0 hour after herbicide application, dosage 3.75 g/hectare"}, "[19]": {"settings": "Spraying water 3.0 hour after herbicide application, dosage 7.5 g/hectare"}, "[20]": {"settings": "Spraying water 3.0 hour after herbicide application, dosage 15 g/hectare"}, "[21]": {"settings": "Spraying water 3.0 hour after herbicide application, dosage 30 g/hectare"}, "[22]": {"settings": "Spraying water 3.0 hour after herbicide application, dosage 60 g/hectare"}, "[23]": {"settings": "Spraying water 6.0 hour after herbicide application, dosage 3.75 g/hectare"}, "[24]": {"settings": "Spraying water 6.0 hour after herbicide application, dosage 7.5 g/hectare"}, "[25]": {"settings": "Spraying water 6.0 hour after herbicide application, dosage 15 g/hectare"}, "[26]": {"settings": "Spraying water 6.0 hour after herbicide application, dosage 30 g/hectare"}, "[27]": {"settings": "Spraying water 6.0 hour after herbicide application, dosage 60 g/hectare"}},
  "note": "“Also recorded” adds a separate entry of the source.",
  "data": [
    {"compound": "COC(=O)OC(C)Oc1c(C(=O)c2ccc(S(C)(=O)=O)c(C3=NOCC3)c2C)cnn1C", "note": "(stereo not shown) [Compound I, 1-((4-(3-(4,5-dihydroisoxazol-3-yl)-2-methyl-4-(methylsulfonyl)benzoyl)-1-methyl-1H-pyrazol-5-yl)oxy)ethyl methyl carbonate]", "values": [
      {"measurement": "Average fresh weight", "setting": "[1]; [3]", "value": 6.3, "unit": "g"},
      {"measurement": "Control efficacy", "setting": "[1]; [3]", "value": 3.1, "unit": "%"},
      {"measurement": "Average fresh weight", "setting": "[1]; [4]", "value": 5.1, "unit": "g"},
      {"measurement": "Control efficacy", "setting": "[1]; [4]", "value": 21.8, "unit": "%"},
      {"measurement": "Average fresh weight", "setting": "[1]; [5]", "value": 3.2, "unit": "g"},
      {"measurement": "Control efficacy", "setting": "[1]; [5]", "value": 50.6, "unit": "%"},
      {"measurement": "Average fresh weight", "setting": "[1]; [6]", "value": 2.6, "unit": "g"},
      {"measurement": "Control efficacy", "setting": "[1]; [6]", "value": 60.5, "unit": "%"},
      {"measurement": "Average fresh weight", "setting": "[1]; [7]", "value": 1.1, "unit": "g"},
      {"measurement": "Control efficacy", "setting": "[1]; [7]", "value": 82.8, "unit": "%"},
      {"measurement": "Average fresh weight", "setting": "[1]; [8]", "value": 6.1, "unit": "g"},
      {"measurement": "Control efficacy", "setting": "[1]; [8]", "value": 6.9, "unit": "%"},
      {"measurement": "Average fresh weight", "setting": "[1]; [9]", "value": 5.1, "unit": "g"},
      {"measurement": "Control efficacy", "setting": "[1]; [9]", "value": 22.2, "unit": "%"},
      {"measurement": "Average fresh weight", "setting": "[1]; [10]", "value": 3.6, "unit": "g"},
      {"measurement": "Control efficacy", "setting": "[1]; [10]", "value": 45.6, "unit": "%"},
      {"measurement": "Average fresh weight", "setting": "[1]; [11]", "value": 2.6, "unit": "g"},
      {"measurement": "Control efficacy", "setting": "[1]; [11]", "value": 60.9, "unit": "%"},
      {"measurement": "Average fresh weight", "setting": "[1]; [12]", "value": 1.1, "unit": "g"},
      {"measurement": "Control efficacy", "setting": "[1]; [12]", "value": 82.8, "unit": "%"},
      {"measurement": "Average fresh weight", "setting": "[1]; [13]", "value": 6.1, "unit": "g"},
      {"measurement": "Control efficacy", "setting": "[1]; [13]", "value": 7.3, "unit": "%"},
      {"measurement": "Average fresh weight", "setting": "[1]; [14]", "value": 5.2, "unit": "g"},
      {"measurement": "Control efficacy", "setting": "[1]; [14]", "value": 21.1, "unit": "%"},
      {"measurement": "Average fresh weight", "setting": "[1]; [15]", "value": 3.9, "unit": "g"},
      {"measurement": "Control efficacy", "setting": "[1]; [15]", "value": 41.0, "unit": "%"},
      {"measurement": "Average fresh weight", "setting": "[1]; [16]", "value": 2.3, "unit": "g"},
      {"measurement": "Control efficacy", "setting": "[1]; [16]", "value": 64.8, "unit": "%"},
      {"measurement": "Average fresh weight", "setting": "[1]; [17]", "value": 0.9, "unit": "g"},
      {"measurement": "Control efficacy", "setting": "[1]; [17]", "value": 86.6, "unit": "%"},
      {"measurement": "Average fresh weight", "setting": "[1]; [18]", "value": 5.6, "unit": "g"},
      {"measurement": "Control efficacy", "setting": "[1]; [18]", "value": 14.9, "unit": "%"},
      {"measurement": "Average fresh weight", "setting": "[1]; [19]", "value": 4.7, "unit": "g"},
      {"measurement": "Control efficacy", "setting": "[1]; [19]", "value": 28.7, "unit": "%"},
      {"measurement": "Average fresh weight", "setting": "[1]; [20]", "value": 3.3, "unit": "g"},
      {"measurement": "Control efficacy", "setting": "[1]; [20]", "value": 50.2, "unit": "%"},
      {"measurement": "Average fresh weight", "setting": "[1]; [21]", "value": 2.7, "unit": "g"},
      {"measurement": "Control efficacy", "setting": "[1]; [21]", "value": 58.2, "unit": "%"},
      {"measurement": "Average fresh weight", "setting": "[1]; [22]", "value": 0.9, "unit": "g"},
      {"measurement": "Control efficacy", "setting": "[1]; [22]", "value": 86.6, "unit": "%"},
      {"measurement": "Average fresh weight", "setting": "[1]; [23]", "value": 6.0, "unit": "g"},
      {"measurement": "Control efficacy", "setting": "[1]; [23]", "value": 8.4, "unit": "%"},
      {"measurement": "Average fresh weight", "setting": "[1]; [24]", "value": 5.0, "unit": "g"},
      {"measurement": "Control efficacy", "setting": "[1]; [24]", "value": 23.4, "unit": "%"},
      {"measurement": "Average fresh weight", "setting": "[1]; [25]", "value": 2.7, "unit": "g"},
      {"measurement": "Control efficacy", "setting": "[1]; [25]", "value": 58.6, "unit": "%"},
      {"measurement": "Average fresh weight", "setting": "[1]; [26]", "value": 2.3, "unit": "g"},
      {"measurement": "Control efficacy", "setting": "[1]; [26]", "value": 64.4, "unit": "%"},
      {"measurement": "Average fresh weight", "setting": "[1]; [27]", "value": 1.1, "unit": "g"},
      {"measurement": "Control efficacy", "setting": "[1]; [27]", "value": 82.8, "unit": "%"},
      {"measurement": "Rainfastness compared with Topramezone (in words)", "setting": "[1]; in vivo", "value": "significantly better rainfastness"},
      {"measurement": "Effect of rain on control efficacy (in words)", "setting": "[1]; rain 0.5 h, 1.0 h and 3.0 h after application", "value": "remained stable"},
      {"measurement": "Effect of rain on control efficacy (in words)", "setting": "[1]; rain 0.5 h after application", "value": "little impact; also recorded: almost unaffected"},
      {"measurement": "Corn Growth Status", "setting": "[2]", "value": "Good, Normal Growth"},
      {"measurement": "Growth of corn / phytotoxicity (in words)", "setting": "[2]", "value": "normal, without causing any phytotoxicity"}
    ]}
  ]
}
